Data: patent US4431640A, “Process for inducing anabolic and androgenic activity in animals” (Roussel Uclaf, priority 1980, dated 1984)

Columns and labels:
androgen receptor = target: T1, androgen receptor (Rattus norvegicus, UniProt P15207); assay: androgenic activity by hormonal receptor method (displacement of tritied R from prostate cytosol); assay type: binding, rats; settings: castrated male rat prostate cytosol, incubated at 0° C. for 2 hours, testosterone = 100
T1 construct: The prostate was removed from male rats castrated 24 hours earlier and it was homogenized; from tissue; host or cells: prostate cytosol (105,000 g supernatant) of male rats castrated 24 hours earlier
T1 sequence (P15207 1-902): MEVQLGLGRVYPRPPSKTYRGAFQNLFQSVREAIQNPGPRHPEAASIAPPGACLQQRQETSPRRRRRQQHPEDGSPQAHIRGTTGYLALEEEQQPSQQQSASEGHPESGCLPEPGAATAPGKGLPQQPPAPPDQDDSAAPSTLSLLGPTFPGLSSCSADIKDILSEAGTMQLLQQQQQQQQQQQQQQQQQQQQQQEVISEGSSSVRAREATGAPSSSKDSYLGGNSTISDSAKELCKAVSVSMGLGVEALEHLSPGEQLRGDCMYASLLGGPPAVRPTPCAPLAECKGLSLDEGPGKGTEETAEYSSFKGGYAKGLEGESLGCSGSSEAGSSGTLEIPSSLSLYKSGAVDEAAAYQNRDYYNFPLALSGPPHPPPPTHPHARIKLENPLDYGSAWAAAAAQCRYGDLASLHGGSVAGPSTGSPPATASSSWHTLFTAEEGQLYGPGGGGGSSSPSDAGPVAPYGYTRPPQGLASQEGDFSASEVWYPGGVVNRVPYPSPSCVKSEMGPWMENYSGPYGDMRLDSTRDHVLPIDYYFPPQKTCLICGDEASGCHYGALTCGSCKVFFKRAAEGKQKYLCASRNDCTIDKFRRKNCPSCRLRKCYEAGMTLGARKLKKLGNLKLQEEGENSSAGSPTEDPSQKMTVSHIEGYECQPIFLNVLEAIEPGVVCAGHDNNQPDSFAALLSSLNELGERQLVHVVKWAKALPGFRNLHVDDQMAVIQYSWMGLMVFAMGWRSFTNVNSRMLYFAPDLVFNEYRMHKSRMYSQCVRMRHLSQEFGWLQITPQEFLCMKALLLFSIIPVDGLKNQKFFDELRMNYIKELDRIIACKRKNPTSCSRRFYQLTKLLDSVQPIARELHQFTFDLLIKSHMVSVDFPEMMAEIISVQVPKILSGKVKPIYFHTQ
Description: The androgenic activity of the compound of Example 1 and 11β-propyl-17α-methyl-Δ^4,9 -estradiene-17β-ol-3-one (compound A) were compared by the hormonal receptor method of Raynaud et al [J. Ster. Biochem., Vol. 6 (1975), p. 615-622]. The prostate was removed from male rats castrated 24 hours earlier and it was homogenized in a buffered 10 mmole tromethamine solution containing 0.25 M of saccharose and a pH of 7.4 with hydrochloric acid. The homogenate was centrifuged at 105,000 g for one hour and the liquid surnageant or "cytosol" was adjusted to obtain a 1/5 (weight/volume) dilution.
The radioactivity of tritied product was determined after about 2 hours in the receptor by the technique of carbon-dextran (1.25%-0.625%) absorption. […] B/T max. is the percentage of tied tritied R product when the compound is not added. B/T min. is the percentage of tied tritied product R when the maximum amount of cold product R is added. […] The relative affinity of the test product or ARL was determined using the formula [formula]

calves of the FFPN race = assay: weight gain test in calves after percutaneous treatment; assay type: in vivo
Description: This test was effected with groups of calves of the FFPN race and all groups received the same amount of feed. The control group were untreated and the other group received percutaneously on day J and J+7 200 mg of the compound of Example 1. The weights of the animals were determined 7 days before the treatment (J-7), on the day of treatment (J), on the day of the second treatment (J+7) and one week after the second treatment (J+14) and the results are reported in the following Table.

Row | Structure (SMILES) | relative affinity (ARL) (androgen receptor) | average weight gain (calves of the FFPN race; 7 days after the test, J 14 to J 21, 200 mg percutaneously on J and J+7) [kg] | Average weight of calves (calves of the FFPN race; day J + 7, day of second treatment, 200 mg percutaneously on J and J+7) [kg] | Average weight of calves (calves of the FFPN race; day J + 14, one week after second treatment, 200 mg percutaneously on J and J+7) [kg] | Average weight of calves (calves of the FFPN race; day J - 7, 7 days before the treatment (baseline)) [kg] | Average weight of calves (calves of the FFPN race; day J, day of first treatment (200 mg percutaneously)) [kg] | average weight gain (calves of the FFPN race; table total (J to J + 14), 200 mg percutaneously on J and J+7) [kg]
1 | C[C@H]1C[C@@]2(C)[C@@H](CC[C@]2(C)O)[C@@H]2CCC3=CC(=O)CCC3=C21 [Example 1, 11β,17α-dimethyl-Δ^4,9-estradiene-17β-ol-3-one] | 90 | 8.63 | 60.47 | 70.67 | 45.50 | 52.30 | 18.37
2 | CCC[C@H]1C[C@@]2(C)[C@@H](CC[C@]2(C)O)[C@@H]2CCC3=CC(=O)CCC3=C12 [product A, 11β-propyl-17α-methyl-Δ^4,9-estradiene-17β-ol-3-one, reference compound] | 22 |  |  |  |  |  | 
